Results reported in patent publication US20190292189A1, “LIM KINASE INHIBITORS” (VIRONGY, LLC, priority 2016, published 2019).
Where two headings read alike, the source gives them in different places.

Tests used:
HIV-1(NL4-3) = assay: microbe, parasite or virus in culture; assay type: cell-based; conditions: […]; dosages with no detectable cytotoxicity
Limk1 = Limk1 (Homo sapiens, UniProt P53667); assay: Limk1 biochemical assay (Reaction Biology, 10-dose IC50); parameters: His; purchased Reaction Biology Corporation; host or cells: insect cells
ROCK-II = ROCK-II (Homo sapiens, UniProt O75116); assay: ROCK-II biochemical counter-screen; conditions: means of ≥2 experiments, read-out: IC50 (nM) ROCK-II
ROCK-I = ROCK-I (Homo sapiens, UniProt Q13464); assay: ROCK-I biochemical counter-screen; conditions: Table 6; read-out: Biochemical Inhibition IC50 (nM) ROCK-I
P450 2C9 = P450 2C9 (Homo sapiens, UniProt P11712); assay: P450 inhibition at 10 μM; assay type: in vitro ADME
P450 2D6 = P450 2D6 (Homo sapiens, UniProt P10635); assay: P450 inhibition at 10 μM; assay type: in vitro ADME
P450 3A4 = P450 3A4 (Homo sapiens, UniProt P08684); assay: P450 inhibition at 10 μM; assay type: in vitro ADME
[1] = Microsomal stability, human liver microsomes; assay type: in vitro ADME
[2] = Microsomal stability, rat liver microsomes; assay type: in vitro ADME; conditions: rat liver microsomes
[3] = Plasma pharmacokinetics studies on rats; conditions: rats; for AUC (iv) / Cl (iv) / T1/2 (iv) / Yd (iv) / Cmax: iv dosing 1 mg/kg; for F (%) (po): po dosing 2 mg/kg; for Cmax: read-out: Cmax (iv)
Procedure: In vivo pharmacokinetics (PK) studies were conducted for selected compounds during the whole optimization at various stages in order to identify structural elements that are favorable for in vivo applications, and/or to evaluate the feasibility of optimized Limk inhibitors for animal studies.

P450 1A2 = biological target: T1, P450 1A2 (Homo sapiens, UniProt P05177)
T1 sequence (P05177 1-516): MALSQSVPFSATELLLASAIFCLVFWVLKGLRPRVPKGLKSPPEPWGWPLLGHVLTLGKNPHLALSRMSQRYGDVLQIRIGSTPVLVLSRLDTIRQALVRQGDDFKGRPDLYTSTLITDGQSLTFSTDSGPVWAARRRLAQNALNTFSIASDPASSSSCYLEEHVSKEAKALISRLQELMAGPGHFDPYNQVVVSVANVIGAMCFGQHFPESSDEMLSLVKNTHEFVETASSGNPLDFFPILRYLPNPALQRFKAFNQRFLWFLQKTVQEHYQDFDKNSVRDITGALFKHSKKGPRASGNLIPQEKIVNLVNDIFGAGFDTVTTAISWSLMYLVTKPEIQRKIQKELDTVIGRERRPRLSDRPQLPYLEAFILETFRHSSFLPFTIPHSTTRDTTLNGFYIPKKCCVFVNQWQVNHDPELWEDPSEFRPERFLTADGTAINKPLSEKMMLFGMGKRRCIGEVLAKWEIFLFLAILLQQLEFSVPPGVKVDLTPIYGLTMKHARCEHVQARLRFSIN

JNK3 = JNK3 (Homo sapiens, UniProt P53779); assay: JNK3 biochemical counter-screen; conditions: Table 6; read-out: Biochemical Inhibition IC50 (nM) JNK3
JNK3, sequence (P53779 whole entry, species assumed): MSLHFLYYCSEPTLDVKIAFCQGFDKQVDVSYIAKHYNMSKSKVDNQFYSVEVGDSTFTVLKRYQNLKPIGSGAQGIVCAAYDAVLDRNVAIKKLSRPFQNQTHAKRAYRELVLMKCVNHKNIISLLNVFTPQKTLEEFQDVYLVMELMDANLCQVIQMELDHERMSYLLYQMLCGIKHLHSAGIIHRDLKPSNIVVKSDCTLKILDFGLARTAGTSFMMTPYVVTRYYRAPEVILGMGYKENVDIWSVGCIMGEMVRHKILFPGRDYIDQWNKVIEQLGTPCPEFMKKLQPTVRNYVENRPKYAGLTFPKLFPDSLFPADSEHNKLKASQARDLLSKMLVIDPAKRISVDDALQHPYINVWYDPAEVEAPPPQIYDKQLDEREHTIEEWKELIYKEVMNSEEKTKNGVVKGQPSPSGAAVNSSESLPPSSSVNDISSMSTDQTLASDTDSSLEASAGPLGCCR

ROCK-I, sequence (Q13464 whole entry, species assumed): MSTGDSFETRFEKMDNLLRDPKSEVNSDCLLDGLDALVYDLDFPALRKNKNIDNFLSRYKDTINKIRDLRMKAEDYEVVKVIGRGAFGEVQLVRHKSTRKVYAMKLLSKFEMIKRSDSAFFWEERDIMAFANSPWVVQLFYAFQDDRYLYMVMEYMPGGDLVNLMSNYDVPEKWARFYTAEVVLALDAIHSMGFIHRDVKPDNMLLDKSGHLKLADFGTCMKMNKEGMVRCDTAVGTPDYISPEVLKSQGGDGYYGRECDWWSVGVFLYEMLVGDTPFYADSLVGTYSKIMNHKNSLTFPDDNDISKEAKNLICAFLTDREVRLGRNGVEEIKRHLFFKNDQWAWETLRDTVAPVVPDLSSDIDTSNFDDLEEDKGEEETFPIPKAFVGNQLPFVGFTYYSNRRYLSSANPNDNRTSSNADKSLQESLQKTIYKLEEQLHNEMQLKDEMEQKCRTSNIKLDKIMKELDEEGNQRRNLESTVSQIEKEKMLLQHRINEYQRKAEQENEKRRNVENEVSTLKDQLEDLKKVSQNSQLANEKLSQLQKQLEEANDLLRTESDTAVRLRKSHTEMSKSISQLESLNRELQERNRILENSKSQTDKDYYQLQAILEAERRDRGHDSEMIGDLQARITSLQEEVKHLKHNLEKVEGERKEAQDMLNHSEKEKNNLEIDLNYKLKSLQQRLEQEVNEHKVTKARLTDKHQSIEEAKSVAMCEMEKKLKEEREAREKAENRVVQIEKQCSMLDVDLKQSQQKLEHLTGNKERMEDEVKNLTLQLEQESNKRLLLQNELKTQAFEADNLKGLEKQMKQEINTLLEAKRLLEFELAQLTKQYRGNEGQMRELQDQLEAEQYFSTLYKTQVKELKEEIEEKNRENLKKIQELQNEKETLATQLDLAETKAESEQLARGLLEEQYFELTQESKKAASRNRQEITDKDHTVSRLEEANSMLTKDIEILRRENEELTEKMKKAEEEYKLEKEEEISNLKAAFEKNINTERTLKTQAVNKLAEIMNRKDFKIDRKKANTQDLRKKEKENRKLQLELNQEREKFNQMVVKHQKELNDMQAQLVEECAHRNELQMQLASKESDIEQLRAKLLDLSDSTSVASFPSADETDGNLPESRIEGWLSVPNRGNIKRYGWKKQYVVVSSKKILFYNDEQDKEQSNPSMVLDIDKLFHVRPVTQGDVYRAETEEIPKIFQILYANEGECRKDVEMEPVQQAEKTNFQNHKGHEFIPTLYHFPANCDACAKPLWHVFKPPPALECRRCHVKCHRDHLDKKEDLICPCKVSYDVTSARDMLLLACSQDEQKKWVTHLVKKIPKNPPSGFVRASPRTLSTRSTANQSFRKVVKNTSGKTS
P450 2D6, sequence (P10635 whole entry): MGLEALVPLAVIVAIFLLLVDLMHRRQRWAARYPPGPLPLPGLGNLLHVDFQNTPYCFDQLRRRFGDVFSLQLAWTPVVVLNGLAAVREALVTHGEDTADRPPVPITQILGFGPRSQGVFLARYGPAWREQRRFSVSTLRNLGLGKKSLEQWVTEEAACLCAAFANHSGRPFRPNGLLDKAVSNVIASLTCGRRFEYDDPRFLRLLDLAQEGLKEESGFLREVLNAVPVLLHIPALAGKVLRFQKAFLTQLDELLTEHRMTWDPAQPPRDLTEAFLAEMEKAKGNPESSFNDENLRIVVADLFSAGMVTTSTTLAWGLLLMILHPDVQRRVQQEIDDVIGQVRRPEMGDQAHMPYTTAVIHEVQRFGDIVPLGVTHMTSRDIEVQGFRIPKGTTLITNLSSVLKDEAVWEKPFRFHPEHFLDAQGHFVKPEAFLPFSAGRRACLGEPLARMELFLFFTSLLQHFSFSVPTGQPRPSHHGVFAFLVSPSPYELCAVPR
P450 3A4, sequence (P08684 whole entry): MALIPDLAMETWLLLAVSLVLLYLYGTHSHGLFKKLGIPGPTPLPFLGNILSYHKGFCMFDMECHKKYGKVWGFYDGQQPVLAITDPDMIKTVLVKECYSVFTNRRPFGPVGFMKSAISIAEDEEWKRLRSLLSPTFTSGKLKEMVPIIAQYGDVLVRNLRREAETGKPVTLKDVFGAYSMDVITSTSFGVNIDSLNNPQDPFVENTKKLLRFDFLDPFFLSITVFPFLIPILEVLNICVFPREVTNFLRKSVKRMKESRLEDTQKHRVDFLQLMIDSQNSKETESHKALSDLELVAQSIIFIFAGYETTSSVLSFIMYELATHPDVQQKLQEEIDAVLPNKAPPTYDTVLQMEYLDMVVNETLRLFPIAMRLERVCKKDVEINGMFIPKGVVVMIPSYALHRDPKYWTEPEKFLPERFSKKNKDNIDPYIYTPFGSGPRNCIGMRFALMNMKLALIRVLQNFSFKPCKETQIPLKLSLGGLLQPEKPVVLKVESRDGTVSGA
P450 2C9, sequence (P11712 whole entry): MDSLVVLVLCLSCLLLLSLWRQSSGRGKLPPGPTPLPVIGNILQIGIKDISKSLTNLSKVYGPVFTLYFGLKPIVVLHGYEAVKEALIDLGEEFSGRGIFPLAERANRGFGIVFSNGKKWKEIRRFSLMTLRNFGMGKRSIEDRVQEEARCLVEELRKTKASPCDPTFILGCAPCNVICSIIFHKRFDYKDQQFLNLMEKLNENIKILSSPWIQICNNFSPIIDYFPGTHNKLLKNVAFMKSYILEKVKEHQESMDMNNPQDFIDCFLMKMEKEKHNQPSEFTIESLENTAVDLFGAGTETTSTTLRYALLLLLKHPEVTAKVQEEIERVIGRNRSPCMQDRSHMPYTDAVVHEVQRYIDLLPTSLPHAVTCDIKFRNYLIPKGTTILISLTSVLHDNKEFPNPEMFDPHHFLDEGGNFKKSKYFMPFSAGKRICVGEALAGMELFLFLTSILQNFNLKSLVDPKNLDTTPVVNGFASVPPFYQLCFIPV
ROCK-II, sequence (O75116 whole entry, species assumed): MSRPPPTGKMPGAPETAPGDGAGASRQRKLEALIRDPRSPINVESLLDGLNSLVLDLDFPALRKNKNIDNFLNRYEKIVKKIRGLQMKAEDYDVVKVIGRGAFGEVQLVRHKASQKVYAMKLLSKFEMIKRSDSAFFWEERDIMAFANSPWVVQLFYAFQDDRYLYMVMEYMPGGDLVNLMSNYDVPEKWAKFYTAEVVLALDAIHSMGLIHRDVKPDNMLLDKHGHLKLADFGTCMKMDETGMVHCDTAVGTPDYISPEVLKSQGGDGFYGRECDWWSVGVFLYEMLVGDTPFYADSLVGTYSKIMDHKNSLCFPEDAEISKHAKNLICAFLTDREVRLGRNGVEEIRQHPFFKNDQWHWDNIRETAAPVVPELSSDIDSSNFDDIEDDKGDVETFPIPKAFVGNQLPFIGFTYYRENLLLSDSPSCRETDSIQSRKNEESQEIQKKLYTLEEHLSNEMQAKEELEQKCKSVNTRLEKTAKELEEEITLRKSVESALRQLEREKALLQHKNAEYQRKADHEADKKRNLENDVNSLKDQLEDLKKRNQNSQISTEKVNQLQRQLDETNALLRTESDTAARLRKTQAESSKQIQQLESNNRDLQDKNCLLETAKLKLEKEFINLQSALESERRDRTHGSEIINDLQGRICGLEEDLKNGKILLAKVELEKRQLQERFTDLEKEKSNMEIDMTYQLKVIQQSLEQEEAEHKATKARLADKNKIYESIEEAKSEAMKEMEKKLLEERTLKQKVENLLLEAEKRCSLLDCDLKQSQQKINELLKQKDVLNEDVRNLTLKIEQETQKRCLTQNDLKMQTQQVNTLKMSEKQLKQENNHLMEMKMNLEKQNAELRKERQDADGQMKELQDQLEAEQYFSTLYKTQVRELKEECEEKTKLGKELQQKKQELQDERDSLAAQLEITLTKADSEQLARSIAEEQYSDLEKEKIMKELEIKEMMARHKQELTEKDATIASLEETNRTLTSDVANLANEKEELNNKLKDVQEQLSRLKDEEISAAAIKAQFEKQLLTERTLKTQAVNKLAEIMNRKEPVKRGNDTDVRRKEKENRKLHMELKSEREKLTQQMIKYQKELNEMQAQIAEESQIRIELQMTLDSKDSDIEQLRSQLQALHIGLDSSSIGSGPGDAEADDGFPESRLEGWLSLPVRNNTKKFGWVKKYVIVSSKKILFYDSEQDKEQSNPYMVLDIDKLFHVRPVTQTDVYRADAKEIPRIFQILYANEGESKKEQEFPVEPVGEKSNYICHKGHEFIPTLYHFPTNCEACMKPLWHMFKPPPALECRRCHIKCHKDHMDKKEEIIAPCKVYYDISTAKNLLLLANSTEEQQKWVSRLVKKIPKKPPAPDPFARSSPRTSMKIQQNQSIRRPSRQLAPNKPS
Limk1, sequence (P53667 285-638): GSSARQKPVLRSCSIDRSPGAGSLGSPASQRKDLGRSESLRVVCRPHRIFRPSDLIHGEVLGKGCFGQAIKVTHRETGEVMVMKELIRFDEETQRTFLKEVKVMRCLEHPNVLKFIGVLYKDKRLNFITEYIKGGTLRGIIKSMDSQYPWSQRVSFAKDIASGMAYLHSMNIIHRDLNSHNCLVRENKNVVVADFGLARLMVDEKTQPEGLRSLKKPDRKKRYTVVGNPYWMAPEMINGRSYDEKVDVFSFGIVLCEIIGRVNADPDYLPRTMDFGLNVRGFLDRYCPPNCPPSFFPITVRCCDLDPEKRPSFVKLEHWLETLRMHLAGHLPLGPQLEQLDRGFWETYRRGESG

| IC50 (ROCK-I) | Structure (SMILES) | X4 HIV infection (screen) (HIV-1(NL4-3)) | IC50 (Limk1; Table 8, read-out: LIMK1 IC50) | P450 % inh. at 10 μM 2C9 (P450 2C9) | P450 % inh. at 10 μM 2D6 (P450 2D6) | P450 % inh. at 10 μM 3A4 (P450 3A4) | Microsomal Stability t1/2 (min) Human [1] | Microsomal Stability t1/2 (min) Rat [2] | P450 % inh. at 10 μM 1A2 (P450 1A2; 10 μM) | also measured |
| --- | --- | --- | --- | --- | --- | --- | --- | --- | --- | --- |
| – | CCOC(=O)c1ccc2nc(N3CCN(c4ncnc5[nH]cc(Cl)c45)[C@H](C)C3)[nH]c2c1 [Compound R10659] | blocked | 45 ± 6 nM | – | – | – | – | – | – | – |
| 2390 nM | Cc1c[nH]c2ncnc(-c3ccc(NC(=O)Nc4cccc(C(=O)NC(C)C)c4)c(F)c3)c12 [Compound 7k, 3-(3-(2-Fluoro-4-(5-methyl-7H-pyrrolo[2,3-d]pyrimidin-4-yl)phenyl)ureido)-N-isopropylbenzamide] | – | – | 35% | 13% | 32% | 27 min | 55 min | 29% | IC50 (ROCK-II; Table 2): 781 nM; AUC (iv) [3]: 5.5 µM·h; Cl (iv) [3]: 7.1 mL/min/kg; T1/2 (iv) [3]: 1.5 h; Yd (iv) [3]: 0.7 L/kg; F (%) (po) [3]: 0%; Cmax [3]: 5.1 µM; IC50 (Limk1; read-out: Limk1 IC50): 18 nM |
| – | Cc1[nH]c2ncnc(-c3ccc(NC(=O)N(CCO)c4ccc(Cl)cc4)c(F)c3)c2c1C [Compound 18s, 1-(4-Chlorophenyl)-3-(4-(5,6-dimethyl-7H-pyrrolo[2,3-d]pyrimidin-4-yl)-2-fluorophenyl)-1-(2-hydroxyethyl)urea] | – | – | 13% | 8% | 16% | 99 min | 44 min | 40% | IC50 (JNK3): > 10000 nM; AUC (iv) [3]: 14.5 µM·h; Cl (iv) [3]: 4.5 mL/min/kg; T1/2 (iv) [3]: 3.2 h; Yd (iv) [3]: 0.5 L/kg; F (%) (po) [3]: 29%; Cmax [3]: 12.3 µM |
| > 20000 nM | Cc1[nH]c2ncnc(-c3ccc(NC(=O)Nc4cccc(C(=O)NC(C)C)c4)cc3)c2c1C [Compound 7i, 3-(3-(4-(5,6-Dimethyl-7H-pyrrolo[2,3-d]pyrimidin-4-yl)phenyl)ureido)-N-isopropylbenzamide] | – | – | 42% | 34% | 42% | 47 min | >120 min | 77% | IC50 (ROCK-II; Table 1): > 10000 nM; IC50 (Limk1; Table 1, means of ≥2 experiments, read-out: IC50 (nM) Limk1): 80 nM |
| – | CC1(c2nc3ccc(C(=O)NC4CCC4)cc3[nH]2)CCN(c2ncnc3[nH]ccc23)CC1 [Compound R8482] | blocked | 41 ± 4 nM | – | – | – | – | – | – | – |
| – | Cc1[nH]c2ncnc(-c3ccc(NC(=O)N(CCN)c4ccc(Cl)cc4)c(F)c3)c2c1C [Compound 18t, 1-(2-Amino-ethyl)-1-(4-chloro-phenyl)-3-[4-(5,6-dimethyl-7H-pyrrolo[2,3-d]pyrimidin-4-yl)-2-fluoro-phenyl]-urea] | – | – | 24% | 52% | −11% | >120 min | >120 min | 24% | IC50 (JNK3): > 10000 nM |
| – | Cc1c[nH]c2ncnc(-c3ccc(-c4nc5ccc(C(=O)NC6CCCC6)cc5[nH]4)c(F)c3)c12 [Compound R8584] | blocked | 50 ± 7 nM | – | – | – | – | – | – | – |
| – | CC(C)NC(=O)c1ccc2[nH]c(N3CCN(c4ncnc5[nH]cc(Cl)c45)C[C@@H]3C)nc2c1 [Compound R10543] | blocked | 5 ± 2 nM | – | – | – | – | – | – | – |
| – | Cc1c[nH]c2ncnc(N3CCC(c4nc5cc(C#N)ccc5[nH]4)CC3)c12 [Compound R8212] | blocked | 44 ± 6 nM | – | – | – | – | – | – | – |

| Structure (SMILES) | IC50 (ROCK-I) | X4 HIV infection (screen) (HIV-1(NL4-3)) | IC50 (Limk1; Table 8, read-out: LIMK1 IC50) | P450 % inh. at 10 μM 2C9 (P450 2C9) | P450 % inh. at 10 μM 2D6 (P450 2D6) | P450 % inh. at 10 μM 3A4 (P450 3A4) | Microsomal Stability t1/2 (min) Human [1] | Microsomal Stability t1/2 (min) Rat [2] | P450 % inh. at 10 μM 1A2 (P450 1A2; 10 μM) | also measured |
| --- | --- | --- | --- | --- | --- | --- | --- | --- | --- | --- |
| COc1cccc(N(CCO)C(=O)Nc2ccc(-c3ncnc4[nH]cc(C)c34)cc2)c1 [Compound 18m, 1-(2-Hydroxyethyl)-1-(3-methoxyphenyl)-3-(4-(5-methyl-7H-pyrrolo[2,3-d]pyrimidin-4-yl)phenyl)urea] | 4320 nM | – | – | 17% | 3% | 44% | 38 min | 21 min | – | IC50 (ROCK-II; Table 4): 3220 nM; P450 % inh. at 10 μM 1A2 (P450 1A2): 3/17/3/44%; IC50 (Limk1; Table 4, means of ≥2 experiments, read-out: IC50 (nM) Limk1): 100 nM |
